Measured values from patent EP4722231A1, “BIOSYNTHESIS METHOD FOR BROAD-SPECTRUM ANTIVIRAL POLYPEPTIDE” (Shanxi Jinbo Bio-Pharmaceutical Co., Ltd., priority 2023, dated 2025).

System: SARS-CoV-2 (D614G) pseudovirus
Conditions: 24 h

## CC[C@H](C)[C@H](NC(=O)[C@H](C)NC(=O)[C@H](CCC(=O)O)NC(=O)[C@H](CCC(=O)O)NC(=O)[C@H](CC(C)C)NC(=O)[C@H](CCCCN)NC(=O)[C@H](CCCCN)NC(=O)[C@H](CCSC)NC(=O)[C@H](CCC(=O)O)NC(=O)[C@H](Cc1ccc(O)cc1)NC(=O)[C@H](CCC(=O)O)NC(=O)[C@H](CC(C)C)NC(=O)[C@H](CC(=O)O)NC(=O)[C@H](CC(C)C)NC(=O)[C@H](Cc1ccccc1)NC(=O)[C@@H](NC(=O)[C@@H](NC(=O)[C@H](CC(N)=O)NC(=O)[C@@H](NC(=O)[C@H](CCC(N)=O)NC(=O)[C@H](CC(=O)O)NC(=O)[C@H](CC(C)C)NC(=O)[C@H](CO)NC(C)=O)[C@@H](C)CC)C(C)C)[C@@H](C)O)C(=O)N[C@@H](CCCCN)C(=O)N[C@@H](CCCCN)C(=O)N[C@@H](CC(C)C)C(=O)N[C@@H](CCC(=O)O)C(=O)N[C@@H](CCC(=O)O)C(=O)N[C@@H](CO)C(=O)N[C@@H](Cc1ccc(O)cc1)C(=O)N[C@H](C(=O)N[C@@H](CC(=O)O)C(=O)N[C@@H](CC(C)C)C(=O)N[C@@H](CCCCN)C(=O)N[C@@H](CCC(=O)O)C(=O)N[C@@H](CC(C)C)C(N)=O)[C@@H](C)CC [EK1]
  IC50: 308 nM
